In patent publication US10016382B2, “Method for decreasing skeletal muscle damage and/or oxidative stress in mammals” (LONZA INC., priority 2014, dated 2018):

Assay: Body composition by GE Prodigy DEXA scan, Example 1
Type: in vivo, dog
Details: for % Fat, Mean / BMC, Mean / Lean Mass, Mean / Total Mass, Mean: Table 14; for BMC-Change / Lean Mass-Change / Total Mass-Change / BMC-Final / BMC-Initial / Lean Mass-Final / Lean Mass-Initial / Total Mass-Final / Total Mass-Initial: Table 20, mean ± SEM; for BMC-Change / Lean Mass-Change / Total Mass-Change: beginning to completion of study
Description: Forty Labrador Retrievers were divided into two equal groups of twenty (11 males, 9 females) based on gender, body weight (“BW”), genetics, and lean mass and fed a low L-carnitine basal diet for a 90 day feeding period. The experimental dogs were fed the low L-carnitine basal for 10 days prior to the start of the study. Twenty of the Labs received 250 mg/day of L-carnitine (batch D22312) and 3.75 g of sugar and twenty of the Labs received 4 g/d of sugar. The dogs were scanned with a GE Prodigy DEXA system immediately prior to beginning of the study and the determined lean mass was utilized as a key component for helping assort the dogs equally between the control and L-carnitine group. A serum sample was obtained from each dog to determine a baseline value for blood biomarkers that were used to evaluate muscle damage and antioxidant status. The L-carnitine and control performance dogs were put through a weekly running program consisting of running sprint type shorter runs of higher intensity twice weekly (1200 yds/session increasing to 2400 yds/session over 10 wk period) and running endurance longer runs one time per wk (increasing from 5 miles/session to 10 miles per session over a 10 wk period). Each performance dog also wore the Actical activity monitor during the last endurance run. The dogs were put through a 15 mile run that included mud, water, tall grass, and swimming. The dogs were timed when they completed the course. The dogs were encouraged by kennel staff that rode along in a 4 wheel all terrain type vehicle during all of the endurance runs. […] Immediately following the 15 mile endurance run, each dog was placed in a kennel and evaluated for recovery time for body temperature (every 15 minutes for 2 hr) and heart rate (every 2 minutes for 14 minutes). Twenty four hours after test dogs ran the last 15 endurance run, post-run serum samples were taken to evaluate biomarkers for muscle damage and antioxidant status. Each test dog was also scanned with the GE Prodigy DEXA to determine body composition change that occurred during the course of the 13 wk study. Body Scans: Each dog was scanned for body composition with a GE Prodigy Pro Fan beam instrument during the week prior to the beginning of the 90 day study and the first working day following the last endurance run. Body composition values were determined for % lean mass, % fat mass, and % bone ash for each dog. The difference in body composition was determined by comparing the beginning scan and last scan for each test dog. The final scans were completed 24 hr post run.

## C[N+](C)(C)C[C@H](O)CC(=O)[O-] [L-carnitine]
Ex.1, 250 mg/d, DEXA, initial vs final, either group
  Lean mass over the study: No increase in lean mass
Ex.1, 250 mg/d, females, beginning to end of study, vs 8.9% control females (p=0.22)
  Increase in % fat mass: 4.2%
Ex.1, 250 mg/d, females, over 90 day study, unpaired t-test (Table 20), vs 9% control females (p=0.30)
  Increase in fat: 5.8%
Ex.1, 250 mg/d, females, vs 11.1 lbs control (p=0.29)
  Fat mass at the end of the study: 8.9 lbs
F, Final
  BMC Least Sq Mean: 820.2 g
  Fat Least Sq Mean: 8.892 lbs
  Fat Percentage Least Sq Mean: 16.32
  Lean Mass Least Sq Mean: 45.62 lbs
  Total Mass Least Sq Mean: 54.51 lbs
F, Initial
  BMC Least Sq Mean: 766.5 g
  Fat Least Sq Mean: 5.631 lbs
  Fat Percentage Least Sq Mean: 11.03
  Lean Mass Least Sq Mean: 45.83 lbs
  Total Mass Least Sq Mean: 51.14 lbs
Final
  BMC Least Sq Mean: 861.6 g
  Fat Least Sq Mean: 8.558 lbs
  Fat Percentage Least Sq Mean: 14.52
  Lean Mass Least Sq Mean: 49.83 lbs
  Total Mass Least Sq Mean: 58.39 lbs
Initial
  BMC Least Sq Mean: 784.2 g
  Fat Least Sq Mean: 5.779 lbs
  Fat Percentage Least Sq Mean: 10.31
  Lean Mass Least Sq Mean: 49.87 lbs
  Total Mass Least Sq Mean: 55.49 lbs
M, Final
  BMC Least Sq Mean: 903 g
  Fat Least Sq Mean: 8.225 lbs
  Fat Percentage Least Sq Mean: 12.73
  Lean Mass Least Sq Mean: 54.04 lbs
  Total Mass Least Sq Mean: 62.27 lbs
M, Initial
  BMC Least Sq Mean: 801.8 g
  Fat Least Sq Mean: 5.927 lbs
  Fat Percentage Least Sq Mean: 9.582
  Lean Mass Least Sq Mean: 53.9 lbs
  Total Mass Least Sq Mean: 59.83 lbs
Sex F, Final
  % Fat, Mean: 16.3%
  BMC, Mean: 820 g
  Lean Mass, Mean: 45.6 lb
  Total Mass, Mean: 54.5 lb
Sex F, Initial
  % Fat, Mean: 12.1%
  BMC, Mean: 764 g
  Lean Mass, Mean: 44.7 lb
  Total Mass, Mean: 50.8 lb
Sex M, Final
  % Fat, Mean: 12.7%
  BMC, Mean: 903 g
  Lean Mass, Mean: 54.0 lb
  Total Mass, Mean: 62.3 lb
Sex M, Initial
  % Fat, Mean: 9.6%
  BMC, Mean: 802 g
  Lean Mass, Mean: 53.9 lb
  Total Mass, Mean: 59.8 lb
All dogs, Final
  % Fat, Mean: 14.3%
  BMC, Mean: 866 g
  Lean Mass, Mean: 50.3 lb
  Total Mass, Mean: 58.8 lb
All dogs, Initial
  % Fat, Mean: 10.6%
  BMC, Mean: 787 g
  Lean Mass, Mean: 50.3 lb
  Total Mass, Mean: 56.3 lb
All dogs
  BMC-Change: 82 ± 46 n = 20 g
  Lean Mass-Change: 0.1 ± 0.3 n = 20 lb
  Total Mass-Change: 3.4 ± 0.8 n = 20 lb
  BMC-Final: 866 ± 26 n = 20 g
  BMC-Initial: 784 ± 44 n = 20 g
  Lean Mass-Final: 50.3 ± 1.5 n = 20 lb
  Lean Mass-Initial: 50.2 ± 1.5 n = 20 lb
  Total Mass-Final: 58.8 ± 1.7 n = 20 lb
  Total Mass-Initial: 55.3 ± 1.7 n = 20 lb
♀
  BMC-Change: 58 ± 11 n = 9 g
  Lean Mass-Change: 0 ± 0.5 n = 9 lb
  Total Mass-Change: 4.7 ± 1.5 n = 9 lb
  BMC-Final: 820 ± 19 n = 9 g
  BMC-Initial: 762 ± 18 n = 9 g
  Lean Mass-Final: 45.6 ± 1.7 n = 9 lb
  Lean Mass-Initial: 45.7 ± 1.3 n = 9 lb
  Total Mass-Final: 54.5 ± 1.4 n = 9 lb
  Total Mass-Initial: 49.8 ± 1.1 n = 9 lb
♂
  BMC-Change: 101 ± 84 n = 11 g
  Lean Mass-Change: 0.1 ± 0.5 n = 11 lb
  Total Mass-Change: 2.4 ± 0.6 n = 11 lb
  BMC-Final: 903 ± 42 n = 11 g
  BMC-Initial: 802 ± 80 n = 11 g
  Lean Mass-Final: 54 ± 1.7 n = 11 lb
  Lean Mass-Initial: 53.9 ± 1.8 n = 11 lb
  Total Mass-Final: 62.3 ± 2.6 n = 11 lb
  Total Mass-Initial: 59.8 ± 2.2 n = 11 lb
Treatment * Sex, F
  BMC Least Sq Mean: 766.5 g
  Fat Least Sq Mean: 7.261 lbs
  Fat Percentage Least Sq Mean: 11.03
  Lean Mass Least Sq Mean: 45.83 lbs
  Total Mass Least Sq Mean: 51.14 lbs
Treatment * Sex, M
  BMC Least Sq Mean: 801.8 g
  Fat Least Sq Mean: 7.076 lbs
  Fat Percentage Least Sq Mean: 9.582
  Lean Mass Least Sq Mean: 53.9 lbs
  Total Mass Least Sq Mean: 59.83 lbs
Treatment level, all dogs
  BMC Least Sq Mean: 784.2 g
  Fat Least Sq Mean: 7.169 lbs
  Fat Percentage Least Sq Mean: 10.31
  Lean Mass Least Sq Mean: 49.87 lbs
  Total Mass Least Sq Mean: 55.49 lb
Model term
  Body mineral content (BMC), mixed model Estimate, term Treatment[L-carnitine]: −22.85
  Body mineral content (BMC), mixed model Estimate, term Treatment[L-carnitine] * Sex[F]: 37.64
  Body mineral content (BMC), mixed model Estimate, term Treatment[L-carnitine] * Sex[F] * Time[Final-Initial]: −17.19
  Body mineral content (BMC), mixed model Estimate, term Treatment[L-carnitine] * Time[Final-Initial]: 6.762
  Fat mass, mixed model Estimate, term Treatment[L-carnitine]: −0.2546
  Fat mass, mixed model Estimate, term Treatment[L-carnitine] * Sex[F]: −0.1764
  Fat mass, mixed model Estimate, term Treatment[L-carnitine] * Sex[F] * Time[Initial]: 0.331
  Fat mass, mixed model Estimate, term Treatment[L-carnitine] * Time[Initial]: 0.3408
  Fat percentage, mixed model Estimate, term Treatment[L-carnitine]: 0.1573
  Fat percentage, mixed model Estimate, term Treatment[L-carnitine] * Sex[F]: 0.281
  Fat percentage, mixed model Estimate, term Treatment[L-carnitine] * Sex[F] * Time[Final-Initial]: −0.9515
  Fat percentage, mixed model Estimate, term Treatment[L-carnitine] * Time[Final-Initial]: −0.8868
  Lean mass, mixed model Estimate, term Treatment[L-carnitine]: −0.3966
  Lean mass, mixed model Estimate, term Treatment[L-carnitine] * Sex[F]: 0.618
  Lean mass, mixed model Estimate, term Treatment[L-carnitine] * Sex[F] * Time[Final-Initial]: 0.1808
  Lean mass, mixed model Estimate, term Treatment[L-carnitine] * Time[Final-Initial]: −0.234
  Total Body Mass, mixed model Estimate, term Treatment[L-carnitine]: −0.3536
  Total Body Mass, mixed model Estimate, term Treatment[L-carnitine] * Sex[F]: 0.6569
  Total Body Mass, mixed model Estimate, term Treatment[L-carnitine] * Sex[F] * Time[Final-Initial]: −0.3655
  Total Body Mass, mixed model Estimate, term Treatment[L-carnitine] * Time[Final-Initial]: −0.8724
